Changes are numbered by the printed parent chain. In brackets after ≈: the same amount, converted by molar mass. Where a SMILES comes first, the peptide text is derived from it. Bridges are numbered along the chain shown (N, C = ends).
How the values were obtained:
[1] = target: T1, RGS4 no Cys in RGS domain (Rattus norvegicus, UniProt P49799, C132A/C148A/C71A/C95A); test: FCPIA, RGS4 mutant with no Cys in RGS domain; assay type: binding
T1 construct: made in house
Procedure: (§1) Since 5nd forms an irreversible, DTT-sensitive bond with RGS, it was suspected that it binds covalently to a cysteine in the protein through a disulfide bridge. Indeed, removal of all 7 cysteines (termed the -7C mutant) from RGS4 greatly diminished 5nd activity (logIC50 of -3.24 ± 0.14 for -7C vs. -4.36 ± 0.02 for wild type) (Figure 5, Table 2).
(§2) Figure 5 Dose curves of 5nd on various RGS4 cysteine mutants. Various concentrations of 5nd were tested for disruption of the RGS4-Gαo interaction for C95A (5 nM), or […], C71A (5nM) or C148A (5nM) (B), A95C in the -7C (5nM), or A132C in the -7C (5nM) (C), A71C in the -7C (5nM), or A148C in the -7C (5nM) (D) or the mutant with no cysteines in the domain (20 nM) or the C-terminus (20 nM) (E) in the FCPIA (mean ± S.E.M., n ≥ 3).
(§3) Proteins were expressed, purified and labeled as described previously. The mutagenesis was done using the "QuickChange Multi Site-Directed Mutagenesis Kit" from Stratagene according to the manufacturer's protocol. The construct of RGS4 used in these studies is a maltose binding protein (MBP-) fusion protein of the RGS4 sequence from which the amphipathic N-terminal helix has been removed (i.e. MBP-RGS4Δ51N). For simplicity in the text, this will be referred to as RGS4. […]

RGS4 C95A = target: T2, RGS4 C95A (Rattus norvegicus, UniProt P49799, C95A); test: FCPIA, RGS4 cysteine mutant C95A; assay type: binding; details: read-out: 5nd logIC50 (converted)
T2 construct: made in house
T2 sequence (P49799 52-205 C95A limits assumed): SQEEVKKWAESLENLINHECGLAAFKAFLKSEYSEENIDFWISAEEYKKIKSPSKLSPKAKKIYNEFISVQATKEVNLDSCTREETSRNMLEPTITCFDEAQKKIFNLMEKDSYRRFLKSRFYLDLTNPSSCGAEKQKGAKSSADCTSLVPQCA
Procedure: as §2
(§4) Proteins were expressed, purified and labeled as described previously. The mutagenesis was done using the "QuickChange Multi Site-Directed Mutagenesis Kit" from Stratagene according to the manufacturer's protocol. The construct of RGS4 used in these studies is a maltose binding protein (MBP-) fusion protein of the RGS4 sequence from which the amphipathic N-terminal helix has been removed (i.e. MBP-RGS4Δ51N). For simplicity in the text, this will be referred to as RGS4. All other RGS proteins were human sequences and were used as Mpb fusions: RGS7 RGS domain (aa: 305–453), RGS8 full length, RGS16 full length, and RGS19ΔC11 (amino acids 1–209). To cleave RGS4Δ51N from the MBP-His6 construct for MS analysis, MBP-His6-RGS4Δ51N was treated with 15% MBP-His6-TEV protease S219V [11] for 22 hours at 4°C and purified over a Ni-NTA column.
(§5) FCPIA was performed as previously published.

RGS4 A71C, -7C = target: T3, RGS4 A71C, -7C (Rattus norvegicus, UniProt P49799, C132A/C148A/C183A/C197A/C204A/C95A); test: FCPIA, RGS4 A71C in the -7C; assay type: binding; details: read-out: 5nd logIC50 (converted)
T3 construct: made in house
T3 sequence (P49799 52-205 C95A/C132A/C148A/C183A/C197A/C204A): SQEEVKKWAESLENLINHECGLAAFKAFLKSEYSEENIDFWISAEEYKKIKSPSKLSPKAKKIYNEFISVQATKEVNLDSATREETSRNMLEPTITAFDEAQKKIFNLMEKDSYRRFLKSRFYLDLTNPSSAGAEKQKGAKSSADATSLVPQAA
Procedure: as §2
(§6) The previous experiments tested which cysteines are necessary for inhibition by 5nd. In an alternative approach, we added cysteines back to the -7C mutant to determine which might be sufficient for 5nd activity. […] Furthermore, Cys132 is involved in the actions but this is clearly not sufficient to explain them. Thus it is concluded that 5nd is at least partially non-selective in its cysteine modification.
as §3

RGS4 C71A = target: T4, RGS4 C71A (Rattus norvegicus, UniProt P49799, C71A); test: FCPIA, RGS4 cysteine mutant C71A; assay type: binding; details: read-out: 5nd logIC50 (converted)
T4 construct: made in house
T4 sequence (P49799 52-205 C71A limits assumed): T2 sequence (P49799 52-205 C95A limits assumed) with C20A, A44C
Procedure: as §2, §4, §5

RGS4 -7C = target: T5, RGS4 -7C (Rattus norvegicus, UniProt P49799, C132A/C148A/C183A/C197A/C204A/C71A/C95A); test: FCPIA, RGS4 -7C mutant (all 7 cysteines removed); assay type: binding; details: read-out: 5nd logIC50 (converted)
T5 construct: made in house
T5 sequence (P49799 52-205 C71A/C95A/C132A/C148A/C183A/C197A/C204A): as the sequence (P49799 52-205 C95A/C132A/C148A/C183A/C197A/C204A) above, with C20A counted along it
Procedure: as §1, §2, §3

RGS4 A132C, -7C = target: T6, RGS4 A132C, -7C (Rattus norvegicus, UniProt P49799, C148A/C183A/C197A/C204A/C71A/C95A); test: FCPIA, RGS4 A132C in the -7C; assay type: binding; details: read-out: 5nd logIC50 (converted)
T6 construct: made in house
T6 sequence (P49799 52-205 C71A/C95A/C148A/C183A/C197A/C204A): as the sequence (P49799 52-205 C95A/C132A/C148A/C183A/C197A/C204A) above, with C20A, A81C counted along it
Procedure: as §2, §6, §3

RGS4 A148C, -7C = target: T7, RGS4 A148C, -7C (Rattus norvegicus, UniProt P49799, C132A/C183A/C197A/C204A/C71A/C95A); test: FCPIA, RGS4 A148C in the -7C; assay type: binding; details: read-out: 5nd logIC50 (converted)
T7 construct: made in house
T7 sequence (P49799 52-205 C71A/C95A/C132A/C183A/C197A/C204A): T2 sequence (P49799 52-205 C95A limits assumed) with C20A, C81A, C132A, C146A, C153A
Procedure: as §2, §6, §3

[2] = Solubility in buffer by HPLC; assay type: physicochemical
Procedure: Soluble peptides were synthesized on Rink resin, cleaved and cyclized as described previously. Peptide purity (at least 95%) and solubility were verified by high-performance liquid chromatography and correct mass was verified by MS analysis. ALogP calculations are from. Peptides were prepared as 5 mM stocks in DMSO.

T1 sequence (P49799 52-205 C71A/C95A/C132A/C148A limits assumed): as the sequence (P49799 52-205 C95A/C132A/C148A/C183A/C197A/C204A) above, with C20A, A132C, A146C, A153C counted along it

For `CC(C)C[C@@H]1NC(=O)CNC(=O)[C@H](CCCCN)NC(=O)[C@@H](NC(=O)[C@H](Cc2c[nH]c3ccccc23)NC(=O)[C@@H](N)Cc2ccc(O)cc2)CSSC[C@@H](C(=O)N[C@@H](CCCCN)C(N)=O)NC1=O` [Peptide 5nd, Tyr-Trp-c [Cys-Lys-Gly-Leu-Cys]-Lys-NH2, S-S] (H-YWCKGLCK-NH2; disulfide 3-7), the IC50 ([1]; no Cys in RGS domain, read-out: 5nd logIC50 (converted)) was 158 µM, the “reduction of potency by removal of all 4 cysteines from the RGS domain” value ([1]; versus wild type RGS4) was 3.6 fold and the IC50 (RGS4 C95A) was 19.5 µM. It also gave an IC50 (RGS4 A71C, -7C) of 631 µM, an IC50 (RGS4 C71A) of 45.7 µM and an IC50 (RGS4 -7C) of 575 µM. For the same compound, the IC50 (RGS4 A132C, -7C) was 389 µM, the IC50 (RGS4 A148C, -7C) was 309 µM and the solubility [2] was 463 µM (≈ 462 µg/mL).
